“Also recorded” adds a separate entry of the source. Where a name gives a salt, the structure may show the parent alone.
Legend:
[1] = DTT-induced drug/neurotransmitter release study from CdS-capped MSN (HPLC); format: physicochemical; conditions: for amount released / portion of encapsulated molecules released: after 3 days of DTT-induced uncapping; for release as share of the total release seen in 3 days: within 24 hours after introduction of 18.5 mM DTT
Procedure: CdS-capped MSN with vancomycin or ATP (10.00 mg) material was dispersed in 1.50 mL of PBS buffer (pH 7.4), followed by repeating wash/sonication/centrifugation cycles for five times to remove physisorbed, uncapped vancomycin or ATP molecules on the exterior surface of the material. The purified MSN/drug composite was redispersed in 3.50 mL of PBS buffer (pH 7.4). Aliquots were taken every 4 hours over a time period of 12 hours from the MSN/water suspension and injected to an analytical HPLC system (Hitachi LC/3DQMS with a reverse phase C18 column (Vydac), 0.4 cm×25 cm) to monitor the leaching of the mesoporous channel encapsulated vancomycin or ATP molecules. After 12 hours, dithiothreitol (DTT, 18.50 mM) was added to the suspension to cleave the disulfide linkage between the CdS nanoparticle and the MSN. The kinetic profiles of the DTT-induced release of vancomycin and ATP were monitored by following two literature-reported HPLC separation conditions. The peaks/areas at 280 and 258 nm were monitored/integrated for the quantitative analysis of amounts of released vancomycin and ATP, respectively. See Farin, D., et al., J. Pharm. Biomed. Anal. 1998, 18, 367-372; and Veciana-Nogues, M. T., et al., Food Chem. 1997, 59, 467-472.

astrocytes = format: cell-based, rat
Procedure: • (i) Wistar rats, raised at Iowa State University, were used for these experiments. Animal care and experimental protocols were in accordance with the guidelines and approval of the Iowa State University Committee on Animal Care. • (ii) Cell Cultures. Enriched primary astrocyte cultures from neonatal (P0 to P3) rat cerebral cortex were prepared as previously described by Jeremic, A., et al., J. Neurochem. 2001, 77, 664-675. Briefly, freshly dissected cortical tissues from three animals were incubated 50 minutes at 37° C. in 2.00 mL of Earle's balanced salt solution (EBSS; Gibco-Invitrogen Co.) containing papain (1.54 mg/mL; Sigma-Aldrich Co.). After incubation, tissue was rinsed with EBSS solution and incubated for 5 minutes in trypsin-inhibitor solution (1 mg/mL; Gibco-Invitrogen Co.). After being rinsed, once with EBSS solution and once with culture medium (consisting of α-minimum essential medium (α-MEM; Gibco-Invitrogen Co.) supplemented with 10% heat-inactivated fetal bovine serum (FBS; Gibco-Invitrogen Co.) and 1.00 mL of penicillin-streptomycin solution (Sigma-Aldrich Co.) per 100 mL), the tissue was mechanically dispersed in culture medium by triturating through a fire-polished glass pipet. The cell suspension was transferred to sterile 15-mL centrifuge tubes and spun at 1000 g for 10 minutes. Cell pellets were resuspended in culture medium (α-MEM supplemented with 10% heat-inactivated FBS and 1.00 mL of penicillin-streptomycin solution per 100.00 mL) and plated in culture flasks. Cells were maintained at 37° C. in a humidified 5% CO2/95% air atmosphere. Culture medium was changed every 2 to 3 days. When mixed cultures reached confluence (9-12 days), the flasks were shaken (260 rpm) for 90 minutes to remove microglia and dividing type I astroglia. After shaking the cells, medium was replaced, and the flasks were incubated for 1 hour to equilibrate with CO2 in the fresh medium. Cultures were then shaken overnight (12-18 hours) at 260 rpm at 37° C. Cultures enriched in type I astroglia were obtained by trypsinizing (0.25%; Sigma-Aldrich Co.) attached cells for 5 minutes. […]

[2] = Loading of vancomycin and ATP into linker-MSN and capping with CdS (HPLC of filtrate); format: physicochemical; conditions: for amount of mesopore-encapsulated molecule per 100.0 mg of linker-MSN material: CdS-capped MSN, calculated from concentration decrease in filtrate, HPLC; for loading efficiency: CdS-capped linker-MSN
Procedure: Purified linker-MSN material from sub-part (b) below (100.00 mg) was incubated in a PBS buffer solution (0.60 mL, pH 7.4) of ATP or vancomycin (3.00 μmol in both cases) for 24 hours. Mercaptoacetic acid-functionalized CdS nanoparticles from sub-part (c) below (0.15 mmol) were dissolved in 2.00 mL of PBS buffer with vancomycin or ATP (0.01 mmol in both cases); 1-[3-(dimethylamino)propyl]-3-ethylcarbodiimide hydrochloride (EDC) (57.50 mg, 0.30 mmol) was added to the CdS/drug solution. The reaction mixture was allowed to stir for 24 hours, followed by centrifuging the suspension at 12 000 rpm for 3 minutes. The resulting precipitates (ATP- or vancomycin-loaded, CdS-capped MSNs) were isolated and dried under vacuum.
The resulting reaction suspensions were centrifuged, and the CdS-capped MSN/drug composite materials along with the unreacted CdS nanoparticles were filtered. The concentrations of the free vancomycin and ATP molecules in the filtrate were then determined by HPLC. The calculated concentration decreases of solution vancomycin and ATP were attributed to the amounts of mesopore-encapsulated vancomycin (2.5 μmol) and ATP (4.7 μmol) per 100.0 mg of linker-MSN material. These numbers correspond to ca. 83.9 and 30.3 mol % loading efficiency, respectively.

[3] = literature reports; cited from earlier work

Row | Structure (SMILES) | amount released [1] [µmol] | portion of encapsulated molecules released [1] [%] | release as share of the total release seen in 3 days [1] [%] | [Ca^2+]i response of astrocytes to ATP (astrocytes; 100.0 μM ATP perfusion, no MSNs, ME-treated astrocytes, triphosphate disodium salt) | [Ca^2+]i response of astrocytes to ATP in presence of empty capped MSNs (astrocytes; 100.0 μM ATP perfusion, CdS-capped MSNs without ATP encapsulation present, triphosphate disodium salt) | amount of mesopore-encapsulated molecule per 100.0 mg of linker-MSN material [2] [µmol] | loading efficiency [2] | isoelectric point (pI) [3] | [Ca^2+]i response of astrocytes to ME (astrocytes; ME 1.0 mM for 5 minutes, without MSNs)
1 | Nc1ncnc2c1ncn2[C@@H]1O[C@H](COP(=O)([O-])OP(=O)([O-])OP(=O)(O)O)[C@@H](O)[C@H]1O.[Na+].[Na+] [ATP, adenosine triphosphate disodium salt] | 1.3 | 28.2 | 85 | obvious increases in [Ca^2+]i | [Ca^2+]i increased; also recorded: An increase in [Ca^2+]i | 4.7 | ~30.3 mol % | – | –
2 | CN[C@H](CC(C)C)C(=O)N[C@H]1C(=O)N[C@@H](CC(N)=O)C(=O)N[C@H]2C(=O)N[C@H]3C(=O)N[C@H](C(=O)N[C@H](C(=O)O)c4cc(O)cc(O)c4-c4cc3ccc4O)[C@H](O)c3ccc(c(Cl)c3)Oc3cc2cc(c3O[C@@H]2O[C@H](CO)[C@@H](O)[C@H](O)[C@H]2O[C@H]2C[C@](C)(N)[C@H](O)[C@H](C)O2)Oc2ccc(cc2Cl)[C@H]1O [vancomycin, Vancomycin hydrochloride] | 1.6 | 53.8 | 85 | – | – | 2.5 | ca. 83.9 mol % | 8.3 | –
3 | OCCS [ME] | – | – | – | – | – | – | – | – | no increase in [Ca^2+]; also recorded: failed to produce any [Ca^2+]i response

From patent US8246999B2, “Capped mesoporous silicates” (Iowa State University Research Foundation, Inc., priority 2003, dated 2012)
